Results reported in ChEMBL document CHEMBL1201862, “PubChem BioAssay data set” (2004).
Active and inactive are the calls of the source.

Assays:
[1] = biological target: T1, Ubiquitin-conjugating enzyme E2 N (Homo sapiens, UniProt P61088); assay type: functional
T1 sequence (P61088 whole entry): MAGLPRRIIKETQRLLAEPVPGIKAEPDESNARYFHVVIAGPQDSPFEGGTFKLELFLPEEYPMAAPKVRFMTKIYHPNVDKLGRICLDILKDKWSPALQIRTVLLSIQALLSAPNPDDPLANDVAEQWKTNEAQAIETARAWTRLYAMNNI

[2] = biological target: T1, Ubiquitin-conjugating enzyme E2 N; assay type: functional; remark: listed apart in the source
Bcl-2-related protein A1 = biological target: T2, Bcl-2-related protein A1 (Mus musculus, UniProt Q07440); assay type: functional;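 note: confirmatory dose–response counterscreen on Bfl-1, used to check hits from a UBC13 polyubiquitin inhibitor campaign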
T2 sequence (Q07440 whole entry): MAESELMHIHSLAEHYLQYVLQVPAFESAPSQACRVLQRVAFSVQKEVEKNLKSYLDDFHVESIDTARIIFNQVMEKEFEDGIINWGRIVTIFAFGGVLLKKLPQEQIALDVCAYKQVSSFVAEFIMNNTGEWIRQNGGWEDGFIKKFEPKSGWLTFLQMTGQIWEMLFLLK

[3] = biological target: Alkaline phosphatase, placental type (Homo sapiens, UniProt P05187); assay: PLAP enzyme inhibitors, confirmation, biochemical, luminescence (AID 1512); assay type: functional
[4] = biological target: T3, Alkaline phosphatase, tissue-nonspecific isozyme (Homo sapiens, UniProt P05186); assay: human TNAP enzyme inhibitors, SAR follow-up, biochemical, luminescent, dose response (AID 1056)
T3 sequence (P05186 whole entry): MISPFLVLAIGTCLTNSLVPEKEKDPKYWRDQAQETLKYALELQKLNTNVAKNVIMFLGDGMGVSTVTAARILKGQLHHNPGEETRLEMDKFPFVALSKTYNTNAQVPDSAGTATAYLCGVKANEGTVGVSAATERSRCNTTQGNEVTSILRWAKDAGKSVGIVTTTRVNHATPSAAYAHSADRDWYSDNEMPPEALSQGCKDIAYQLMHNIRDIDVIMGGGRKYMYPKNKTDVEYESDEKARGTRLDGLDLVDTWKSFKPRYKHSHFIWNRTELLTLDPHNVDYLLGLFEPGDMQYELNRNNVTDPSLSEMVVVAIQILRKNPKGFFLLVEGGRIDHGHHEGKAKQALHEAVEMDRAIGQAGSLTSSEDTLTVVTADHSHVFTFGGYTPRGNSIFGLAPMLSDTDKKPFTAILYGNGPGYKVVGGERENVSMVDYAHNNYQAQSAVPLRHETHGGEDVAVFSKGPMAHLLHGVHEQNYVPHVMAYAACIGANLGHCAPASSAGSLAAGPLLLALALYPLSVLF

[5] = biological target: DNA dC->dU-editing enzyme APOBEC-3G (Homo sapiens, UniProt Q9HC16); assay type: functional;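 note: Dose-response counterscreen measuring inhibition of APOBEC3G DNA deaminase activity, run while confirming APOBEC3A inhibitors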
[6] = biological target: DNA dC->dU-editing enzyme APOBEC-3A (Homo sapiens, UniProt P31941); assay: Dose Response confirmation of small molecule APOBEC3A DNA Deaminase Inhibitors via a fluorescence-based single-stranded DNA deaminase assay. [Related pubchem assays (depositor defined):AID493011, AID493024]; assay type: functional
Troponin, cardiac muscle = Troponin, cardiac muscle (Homo sapiens, UniProt P19429+P45379+P63316); assay: Fluorescence-based biochemical high throughput dose response assay for activators of the calcium sensitivity of cardiac Regulated Thin Filaments (RTF). [Related pubchem assays (depositor defined):AID493008, AID493018, AID504382, AID504383]; assay type: protein-complex assay
[7] = biological target: T4, G-protein coupled receptor 55 (Homo sapiens, UniProt Q9Y2T6); assay: GPR55 antagonists blocking LPI-driven arrestin recruitment, primary screen, imaging, U2OS, beta-arrestin-GFP, LPI agonist (AID 2013); assay type: functional;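 note: antagonist potency measured as reduced agonist-driven arrestin aggregation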
[8] = biological target: Glyceraldehyde-3-phosphate dehydrogenase (Homo sapiens, UniProt P04406)
[9] = biological target: T5, RNA-binding protein pos-1 (Caenorhabditis elegans, UniProt G5EF15); assay: inhibitors of POS-1/mex-3 RNA binding, dose response, biochemical, fluorescence polarization (AID 1964);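 note: purified POS-1 fused to maltose binding protein made in E. coli; potency of compounds blocking POS-1 binding to fluorescent RNA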
T5 sequence (G5EF15 whole entry): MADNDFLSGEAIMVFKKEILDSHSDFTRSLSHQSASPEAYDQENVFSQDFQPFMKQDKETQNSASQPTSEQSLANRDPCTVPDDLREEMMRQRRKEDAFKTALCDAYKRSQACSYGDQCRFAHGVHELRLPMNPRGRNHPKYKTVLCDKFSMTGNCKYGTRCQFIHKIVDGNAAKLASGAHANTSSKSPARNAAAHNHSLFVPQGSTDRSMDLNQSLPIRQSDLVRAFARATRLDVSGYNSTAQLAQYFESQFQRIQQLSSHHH

[10] = biological target: T6, Zinc finger protein mex-5 (Caenorhabditis elegans, UniProt Q9XUB2); assay: MEX-5/TCR-2 RNA interaction inhibitors, dose response, biochemical, C. elegans, fluorescence polarization (AID 1960)
T6 sequence (Q9XUB2 whole entry): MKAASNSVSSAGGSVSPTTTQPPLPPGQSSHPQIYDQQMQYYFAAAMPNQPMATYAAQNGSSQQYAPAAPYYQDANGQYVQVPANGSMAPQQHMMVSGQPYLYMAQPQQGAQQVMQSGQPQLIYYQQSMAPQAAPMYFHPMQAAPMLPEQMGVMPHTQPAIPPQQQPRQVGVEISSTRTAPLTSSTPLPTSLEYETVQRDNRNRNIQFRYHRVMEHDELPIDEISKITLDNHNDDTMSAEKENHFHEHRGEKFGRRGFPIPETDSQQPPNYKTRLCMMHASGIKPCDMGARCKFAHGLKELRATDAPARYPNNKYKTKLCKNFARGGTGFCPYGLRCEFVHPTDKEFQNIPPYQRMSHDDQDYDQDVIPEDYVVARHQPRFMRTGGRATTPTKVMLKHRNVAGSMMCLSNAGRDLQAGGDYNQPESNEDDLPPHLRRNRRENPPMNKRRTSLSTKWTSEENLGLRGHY

Cytochrome P450 2C19 = Cytochrome P450 2C19 (Homo sapiens, UniProt P33261); assay: Cytochrome panel assay with activity outcomes. Panel member name: p450-cyp2c19 Compounds with AC50 equal or less than 10 uM are considered active; assay type: functional; details: read-out: AC50
Cytochrome P450 1A2 = biological target: T7, Cytochrome P450 1A2 (Homo sapiens, UniProt P05177);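 note: PubChem cytochrome P450 panel assay, CYP1A2 panel member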
T7 sequence (P05177 whole entry): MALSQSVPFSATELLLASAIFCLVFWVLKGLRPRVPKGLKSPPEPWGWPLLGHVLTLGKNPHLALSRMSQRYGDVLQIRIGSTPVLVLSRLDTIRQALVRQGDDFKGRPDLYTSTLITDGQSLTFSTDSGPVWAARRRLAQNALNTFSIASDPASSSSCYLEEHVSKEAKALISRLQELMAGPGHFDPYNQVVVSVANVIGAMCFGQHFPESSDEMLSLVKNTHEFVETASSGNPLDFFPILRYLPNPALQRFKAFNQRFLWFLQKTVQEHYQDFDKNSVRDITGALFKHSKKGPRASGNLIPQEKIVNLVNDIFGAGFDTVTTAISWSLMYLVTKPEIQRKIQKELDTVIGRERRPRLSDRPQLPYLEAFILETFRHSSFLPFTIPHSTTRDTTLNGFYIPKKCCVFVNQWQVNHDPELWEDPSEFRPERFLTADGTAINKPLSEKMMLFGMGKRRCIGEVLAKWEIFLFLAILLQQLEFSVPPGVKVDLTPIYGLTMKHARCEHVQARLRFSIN

Cytochrome P450 2C9 = Cytochrome P450 2C9 (Homo sapiens, UniProt P11712)
[11] = biological target: T8, Corticotropin-releasing factor receptor 2/Corticotropin-releasing factor-binding protein (Homo sapiens, UniProt P24387+Q13324); assay: activators of CRF receptor 2 with binding protein – uHTS hits, confirmation (AID 602473); assay type: functional; details: read-out: EC50_Mean
T8 sequence (Q13324 whole entry): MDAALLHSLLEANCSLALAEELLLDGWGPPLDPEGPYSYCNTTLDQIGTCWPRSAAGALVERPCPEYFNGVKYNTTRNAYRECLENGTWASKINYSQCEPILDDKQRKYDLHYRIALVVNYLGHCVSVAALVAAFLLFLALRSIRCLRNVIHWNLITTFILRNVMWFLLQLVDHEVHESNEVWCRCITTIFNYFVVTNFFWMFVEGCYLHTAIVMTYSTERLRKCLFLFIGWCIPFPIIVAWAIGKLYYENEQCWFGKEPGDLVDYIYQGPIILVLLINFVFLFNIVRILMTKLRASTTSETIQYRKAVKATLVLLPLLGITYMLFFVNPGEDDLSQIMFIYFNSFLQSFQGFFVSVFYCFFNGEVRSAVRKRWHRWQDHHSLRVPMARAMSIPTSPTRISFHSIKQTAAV
T8 sequence (P24387 whole entry): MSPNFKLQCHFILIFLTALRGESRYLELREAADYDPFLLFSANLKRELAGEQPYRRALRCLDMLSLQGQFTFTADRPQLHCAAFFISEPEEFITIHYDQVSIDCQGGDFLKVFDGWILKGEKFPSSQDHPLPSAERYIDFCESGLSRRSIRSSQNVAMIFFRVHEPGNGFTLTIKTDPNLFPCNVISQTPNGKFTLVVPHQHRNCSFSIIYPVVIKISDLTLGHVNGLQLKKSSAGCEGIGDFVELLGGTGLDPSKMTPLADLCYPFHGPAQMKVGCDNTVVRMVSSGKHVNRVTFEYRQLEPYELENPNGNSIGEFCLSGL

[12] = microbe, parasite or virus in culture; assay type: functional; details: Mycobacterium tuberculosis
[13] = biological target: T4, G-protein coupled receptor 55; assay: GPR55 agonists via beta-arrestin recruitment, primary screen, imaging, U2OS cells, beta-arrestin-GFP redistribution (AID 1961); assay type: functional
Caspase-6 = biological target: T9, Caspase-6 (Homo sapiens, UniProt P55212); assay: human caspase-6 inhibitors, dose response, biochemical, VEID-R110 fluorescence, cherry-pick (AID 720632)
T9 sequence (P55212 whole entry): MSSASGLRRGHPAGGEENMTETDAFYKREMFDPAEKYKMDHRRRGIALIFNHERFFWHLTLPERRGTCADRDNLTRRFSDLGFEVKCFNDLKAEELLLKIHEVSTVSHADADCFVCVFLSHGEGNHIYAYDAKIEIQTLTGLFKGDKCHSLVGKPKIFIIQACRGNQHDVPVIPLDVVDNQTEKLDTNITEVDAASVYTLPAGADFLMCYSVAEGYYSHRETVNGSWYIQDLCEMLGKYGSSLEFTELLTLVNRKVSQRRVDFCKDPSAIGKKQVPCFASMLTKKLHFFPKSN

[14] = biological target: T10, Carboxy-terminal domain RNA polymerase II polypeptide A small phosphatase 1 (Homo sapiens, UniProt Q9GZU7); assay: inhibitors of CTDSP1, concentration-response testing, biochemical assay, absorbance-based, actives from ultra-high-throughput screening (AID 540297); assay type: functional
T10 sequence (Q9GZU7 whole entry): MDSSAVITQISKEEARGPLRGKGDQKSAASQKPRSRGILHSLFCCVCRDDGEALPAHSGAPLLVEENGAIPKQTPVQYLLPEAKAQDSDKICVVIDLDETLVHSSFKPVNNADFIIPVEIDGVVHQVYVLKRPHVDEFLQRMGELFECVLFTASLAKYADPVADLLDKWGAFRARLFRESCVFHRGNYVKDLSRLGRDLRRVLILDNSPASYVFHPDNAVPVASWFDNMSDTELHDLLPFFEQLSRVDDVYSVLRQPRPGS

T4 sequence (Q9Y2T6 whole entry): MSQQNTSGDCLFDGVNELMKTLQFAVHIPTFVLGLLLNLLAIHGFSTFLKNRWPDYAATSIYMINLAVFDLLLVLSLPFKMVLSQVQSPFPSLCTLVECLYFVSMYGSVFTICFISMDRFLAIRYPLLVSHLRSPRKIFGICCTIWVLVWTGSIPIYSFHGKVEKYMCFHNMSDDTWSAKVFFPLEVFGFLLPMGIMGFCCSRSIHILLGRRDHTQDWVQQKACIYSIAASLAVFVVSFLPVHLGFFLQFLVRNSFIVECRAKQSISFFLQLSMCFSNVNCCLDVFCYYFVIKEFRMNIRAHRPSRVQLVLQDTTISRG
DNA dC->dU-editing enzyme APOBEC-3G, sequence (Q9HC16 whole entry): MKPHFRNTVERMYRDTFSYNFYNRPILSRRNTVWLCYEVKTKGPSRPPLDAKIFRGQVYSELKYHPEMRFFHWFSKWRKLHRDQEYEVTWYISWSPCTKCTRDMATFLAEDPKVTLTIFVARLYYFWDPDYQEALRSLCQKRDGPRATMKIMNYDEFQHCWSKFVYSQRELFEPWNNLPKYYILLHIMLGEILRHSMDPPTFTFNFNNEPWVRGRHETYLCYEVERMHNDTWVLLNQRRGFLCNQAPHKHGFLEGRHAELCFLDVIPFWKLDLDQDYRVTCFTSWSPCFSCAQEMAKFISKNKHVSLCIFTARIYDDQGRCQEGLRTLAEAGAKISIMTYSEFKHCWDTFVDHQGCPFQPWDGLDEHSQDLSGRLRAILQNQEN
DNA dC->dU-editing enzyme APOBEC-3A, sequence (P31941 whole entry): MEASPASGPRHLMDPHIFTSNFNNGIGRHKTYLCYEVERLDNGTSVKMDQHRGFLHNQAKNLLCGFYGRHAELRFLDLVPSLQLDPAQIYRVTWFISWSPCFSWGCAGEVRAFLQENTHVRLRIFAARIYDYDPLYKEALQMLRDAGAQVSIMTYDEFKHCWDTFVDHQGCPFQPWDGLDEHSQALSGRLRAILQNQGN
Alkaline phosphatase, placental type, sequence (P05187 whole entry): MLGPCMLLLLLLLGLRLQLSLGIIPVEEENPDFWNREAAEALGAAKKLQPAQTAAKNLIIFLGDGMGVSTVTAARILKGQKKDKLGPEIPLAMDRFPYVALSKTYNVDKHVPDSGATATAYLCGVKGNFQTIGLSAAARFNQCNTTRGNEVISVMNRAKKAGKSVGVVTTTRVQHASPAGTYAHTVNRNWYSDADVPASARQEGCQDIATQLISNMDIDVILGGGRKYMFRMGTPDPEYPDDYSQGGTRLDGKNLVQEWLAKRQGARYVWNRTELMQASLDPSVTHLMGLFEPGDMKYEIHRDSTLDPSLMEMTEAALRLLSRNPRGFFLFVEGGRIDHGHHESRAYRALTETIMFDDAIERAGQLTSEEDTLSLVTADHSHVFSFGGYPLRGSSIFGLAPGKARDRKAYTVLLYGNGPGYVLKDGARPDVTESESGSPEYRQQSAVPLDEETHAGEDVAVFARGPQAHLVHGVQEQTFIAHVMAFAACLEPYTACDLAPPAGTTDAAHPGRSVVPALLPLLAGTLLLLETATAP
Glyceraldehyde-3-phosphate dehydrogenase, sequence (P04406 whole entry, the tested form may be a part): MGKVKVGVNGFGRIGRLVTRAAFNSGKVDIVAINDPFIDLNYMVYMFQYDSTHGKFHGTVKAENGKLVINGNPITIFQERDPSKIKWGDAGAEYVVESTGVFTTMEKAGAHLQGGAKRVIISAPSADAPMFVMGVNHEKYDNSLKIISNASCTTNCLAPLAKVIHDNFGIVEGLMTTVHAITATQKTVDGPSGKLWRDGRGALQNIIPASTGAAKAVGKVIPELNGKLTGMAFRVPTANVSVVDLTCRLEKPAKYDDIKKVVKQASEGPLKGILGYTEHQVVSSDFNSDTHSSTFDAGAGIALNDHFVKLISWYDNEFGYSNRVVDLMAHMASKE
Cytochrome P450 2C19, sequence (P33261 whole entry): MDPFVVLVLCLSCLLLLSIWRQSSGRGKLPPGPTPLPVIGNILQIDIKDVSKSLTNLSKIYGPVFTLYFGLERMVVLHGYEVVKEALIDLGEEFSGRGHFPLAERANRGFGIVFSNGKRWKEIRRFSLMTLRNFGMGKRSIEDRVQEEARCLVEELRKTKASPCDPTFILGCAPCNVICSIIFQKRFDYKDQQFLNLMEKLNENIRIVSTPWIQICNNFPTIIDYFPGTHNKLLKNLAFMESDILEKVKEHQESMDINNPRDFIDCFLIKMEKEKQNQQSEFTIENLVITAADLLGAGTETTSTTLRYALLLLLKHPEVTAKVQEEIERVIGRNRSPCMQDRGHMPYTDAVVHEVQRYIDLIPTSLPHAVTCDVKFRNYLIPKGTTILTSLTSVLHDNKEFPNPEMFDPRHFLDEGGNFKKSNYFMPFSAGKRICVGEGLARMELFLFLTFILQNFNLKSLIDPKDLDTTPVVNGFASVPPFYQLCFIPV
Cytochrome P450 2C9, sequence (P11712 whole entry): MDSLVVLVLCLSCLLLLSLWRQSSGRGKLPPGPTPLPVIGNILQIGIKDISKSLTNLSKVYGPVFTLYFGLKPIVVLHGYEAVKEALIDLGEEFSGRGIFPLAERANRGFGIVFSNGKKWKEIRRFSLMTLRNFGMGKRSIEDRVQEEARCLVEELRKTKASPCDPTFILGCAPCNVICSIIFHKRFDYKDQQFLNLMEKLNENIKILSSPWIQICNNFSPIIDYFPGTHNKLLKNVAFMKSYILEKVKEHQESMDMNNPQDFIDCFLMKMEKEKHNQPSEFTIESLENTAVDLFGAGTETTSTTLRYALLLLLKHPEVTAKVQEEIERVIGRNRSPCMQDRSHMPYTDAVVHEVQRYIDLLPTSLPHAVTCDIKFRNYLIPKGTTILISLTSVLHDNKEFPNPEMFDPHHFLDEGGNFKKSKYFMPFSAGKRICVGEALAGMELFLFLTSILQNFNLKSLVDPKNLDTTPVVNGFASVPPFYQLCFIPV

## CC1(C)Cc2c(sc(NC(=O)C(=O)NCCCN3CCOCC3)c2C(N)=O)CO1
[1]
  IC50: 2.14 µM (active)
[2]
  IC50: 7.92 µM (active)
Bcl-2-related protein A1
  IC50: > 20 µM (inactive)

## Cc1ccc(C)c(NC(=S)NC(NC(=O)Cc2cccc3ccccc23)C(Cl)(Cl)Cl)c1 (centres undefined)
[3]
  IC50: 11.5 µM (active)
[4]
  IC50: > 100 µM (inactive)

## COC(=O)C1=C(C)N(Cc2ccccc2)C(NCc2ccc(OC)cc2)=N[C@H]1c1ccccc1
[5]
  IC50: 10.8 µM (active)
[6]
  IC50: 5.01 µM (active)

## O=C(/C=C/c1cn(CC(O)CN2CCCCC2)c2ccccc12)c1cccs1 (centres undefined)
Troponin, cardiac muscle
  EC50: 17.9 µM (inactive)

## COc1ccc(C23CC4CC(CC(C4)C2)C3)cc1C(=O)NCCN(C)C
[7]
  IC50: 1.37 µM (active)

## COc1ccc(-c2c(-c3ccc(OCC(=O)NN)cc3O)n[nH]c2C(F)(F)F)cc1
[7]
  IC50: 2.75 µM (active)

## CC1(C)CC(=O)c2c(-c3ccc(F)cc3)n[nH]c2C1
[3]
  IC50: > 100 µM (inactive)
[8]
  IC50: > 100 µM (not active)
[4]
  IC50: 5.95 µM (active)

## O=C(NNC(=S)NC(=O)c1ccccc1[N+](=O)[O-])c1ccccc1[N+](=O)[O-]
[3]
  IC50: > 100 µM (inactive)

## COc1ccc(C(=O)Nc2cc(C(C)=O)c(/C=C/N(C)C)oc2=O)cc1
[9]
  EC50: 54.1 µM (active)
[10]
  EC50: 54.8 µM (active)
Cytochrome P450 2C19
  AC50: 10 µM (inconclusive)
Cytochrome P450 1A2
  AC50: 15.8 µM (inconclusive)
Troponin, cardiac muscle
  EC50: 10.5 µM (inactive)
Cytochrome P450 2C9
  AC50: 22.4 µM (inconclusive)
[11]
  EC50: 6.69 µM (active)

## O=C1c2ccccc2C(=O)N1c1nncs1
[8]
  IC50: > 100 µM (not active)
[4]
  IC50: > 100 µM (inactive)

## COC(=O)C1=C(C)N(CC2CC2)C(=NCCN2CCOCC2)N[C@H]1c1ccccc1
[5]
  IC50: 4.91 µM (active)
[6]
  IC50: 5.16 µM (active)

## COc1ccc(-c2csc3nc(-c4ccccc4OC)oc(=O)c23)cc1
[12]
  CC50: 30.8 µM (active)
[13]
  EC50: 25 µM (inactive)

## O=C(O)c1cc(NS(=O)(=O)c2ccc(NC3CCCCC3)c([N+](=O)[O-])c2)cc(C(=O)O)c1
[7]
  IC50: 5.62 µM (active)

## Sc1nc(-c2ccc(Cl)cc2Cl)n[nH]1
[3]
  IC50: > 100 µM (inactive)
[8]
  IC50: > 100 µM (not active)
[4]
  IC50: > 100 µM (inactive)

## COc1ccc(/C=N/NC(=O)c2cc(C34CC5CC(CC(C5)C3)C4)[nH]n2)cc1OC
[7]
  IC50: 2.74 µM (active)

## O=C1C2C(C(=O)N1/N=C/c1cc([N+](=O)[O-])c(O)cc1O)C1C=CC2C12CC2 (centres undefined)
Caspase-6
  AC50: 3.41 µM (active)
[14]
  IC50: 4.9 µM (active)
[5]
  IC50: 40.2 µM (active)
[6]
  IC50: 11.3 µM (active)

## O=C(CO/N=C/c1ccccc1OC(F)F)NCc1cccs1
Troponin, cardiac muscle
  EC50: > 71.5 µM (inactive)

## Cc1c2ccccc2cc(Cc2ccccc2)[n+]1C
[5]
  IC50: 2.98 µM (active)
[6]
  IC50: 3.64 µM (active)
